Laboratory results as given in US12280072B2, “Oligosaccharide compound for inhibiting intrinsic coagulation factor X-enzyme complex, and preparation method therefor and uses thereof” (Jiuzhitang Co., Ltd., priority 2017, dated 2025).

Experiments:
Type in all cases: biochemical
FXa (Homo sapiens) = target: T1, FXa (Homo sapiens); test: AT-dependent Xa inhibitory activity assay; conditions: in presence of AT; for IC50: read-out: Drug concentration required to inhibit 50% of coagulation factor activity (IC50, ng/mL) Xa (AT)
T1 construct: 8 μg/mL FXa solution; purchased
Description: AT-dependent Xa inhibitory activity assay: Heparin […] kit was used for detection. To a 96-well plate, 30 μL of sample, control solution or Tris-HCl buffer (negative control) was added, then 30 μL of 1 IU/mL AT solution was added, mixed well and incubated at 37° C. for 1 min; and than 30 μL of 8 μg/mL FXa solution was added, mixed well and incubated at 37° C. for 1 min, then 30 μL of pre-warmed 1.25 mM Xa chromogenic substrate SXa-11 was added. OD405 was detected by a microplate reader.
(§1) Data processing: The average value of OD405 detected by the duplicated well was used as the detection value of the test sample and the reference of each concentration, and the slope of the linear fit between the detected value to the time value (the change rate of the absorbance value OD405/min) indicated enzymatic activity of coagulation factor. Taking the clotting factor activity of the negative control well as 100%, coagulation factor activity (percentage) in the presence of the test sample was calculated. The coagulation factor activity in the presence of the test sample was plotted against the concentration of the test sample, and fitted according to the following formula, to calculate the IC50 value: B=(IC50)^n/{(IC50)^n+[I]^n}
(§2) in the formula, B is the coagulation factor activity (percentage) in the presence of the test sample, [I] is the concentration of the test sample, IC50 is the half inhibitory concentration (concentration of the test sample required to inhibit 50% of the activity), and n is the Hill coefficient. • (4) Effect on surface activation and platelet activity: […]

FIIa (Homo sapiens) = target: T2, FIIa (Homo sapiens); test: AT-dependent IIa inhibitory activity assay; conditions: in presence of AT; for IC50: read-out: Drug concentration required to inhibit 50% of coagulation factor activity (IC50, ng/mL) Ha (AT)
T2 construct: antithrombin (i.e., active coagulation factor IIa); purchased
Description: AT-dependent IIa inhibitory activity assay: Heparin Anti-FIIa kit was used for detection. To a 96-well plate, 30 μL of sample, control solution or Tris-HCl buffer (negative control) was added, and then 30 μL of 1 IU/mL AT solution was added, mixed well by shaking the plate and incubated at 37° C. for 2 min; 30 μL of 24 IU/mL FIIa solution was added, mixed well by shaking the plate and incubated for 2 min at 37° C., and then 30 μL of pre-warmed 1.25 mM FIIa specific chromogenic substrate CS-01 (38) was added, mixed well by shaking the plate. The OD405 was detected by a microplate reader and the IC50 value of FIIa inhibition of each sample was calculated.
as §1, §2

human-controlled plasma [1] = test: Anticoagulant activity assay: PT clotting time
Description: (§3) 8.2 Methods • (1) Preparation of sample solution: Oligosaccharide compounds A1˜A8, B1˜B11 and oligosaccharide mixtures C1, D1, D2 were all dissolved in Tris-HCl buffer and diluted to the desired series of solubility. • (2) Anticoagulant activity assay: 90 μL of human-controlled plasma was added to the sample or 10 μL of the control solution, and then the clotting time (APTT and PT) was detected by the MC-4000 coagulometer according to the method described in the APTT and PT kit instructions. • (3) Coagulation factor inhibitory activity analysis: […]

plasma = test: TT (thrombin time) clotting time
intrinsic factor Xase = target: T3, intrinsic factor Xase (Homo sapiens, UniProt P00740); test: Xase inhibitory activity assay; conditions: for IC50: read-out: Drug concentration required to inhibit 50% of coagulation factor activity (IC50, ng/mL) Xase (converted)
T3 construct: 60 nM FIXa; purchased
Description: Xase inhibitory activity assay: Detection was performed according to kit instructions and literature methods by combining the Factor VIII and […]. Specifically, to each well of a 96-well plate, 30 μL of test solution, control solution, or Tris-HCl buffer (negative control) was added, and 30 μl of FVIII (2 IU/ml), 30 μl of R2 (60 nM FIXa, containing FIIa, PC/PS, Ca^2+) were sequentially added, mixed by shaking the plate, incubated at 37° C. for 2 min; and then 30 μL of R1 (50 nM FX, containing direct thrombin inhibitor) was added, mixed by shaking the plate, incubated at 37° C. for 1 min; and then 30 μL of R3 (FXa chromogenic substrate SXa-11, about 8.4 mM) was added. The absorbance at 405 nm (OD405) was detected with a microplate reader, continuously measuring for 7.5 min at a interval of 30 s. The Xase activity and IC50 value of Xase inhibition of the test sample were calculated based on the OD405 change value.
as §1, §2

human-controlled plasma [2] = test: Anticoagulant activity assay: APTT clotting time
Description: as §3

T1 sequence (P01008 33-464): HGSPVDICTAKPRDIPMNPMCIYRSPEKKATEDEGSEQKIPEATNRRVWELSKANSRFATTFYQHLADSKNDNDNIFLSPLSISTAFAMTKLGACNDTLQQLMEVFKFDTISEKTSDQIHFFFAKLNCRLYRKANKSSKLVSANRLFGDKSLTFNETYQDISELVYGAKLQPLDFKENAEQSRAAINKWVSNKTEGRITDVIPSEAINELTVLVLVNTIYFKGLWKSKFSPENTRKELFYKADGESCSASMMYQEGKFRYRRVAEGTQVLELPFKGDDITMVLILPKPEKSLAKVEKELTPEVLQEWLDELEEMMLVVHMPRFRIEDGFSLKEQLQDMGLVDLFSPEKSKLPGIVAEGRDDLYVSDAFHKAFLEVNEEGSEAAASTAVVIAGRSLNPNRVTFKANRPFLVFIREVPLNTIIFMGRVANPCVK
T2 sequence (P01008 33-464): as above
T3 sequence (P00740 47-191 limits assumed): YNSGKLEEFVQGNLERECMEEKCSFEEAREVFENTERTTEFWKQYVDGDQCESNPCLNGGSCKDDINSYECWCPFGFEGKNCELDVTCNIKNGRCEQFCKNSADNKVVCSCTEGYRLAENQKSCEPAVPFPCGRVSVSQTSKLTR
T3 sequence (P00740 227-461 limits assumed): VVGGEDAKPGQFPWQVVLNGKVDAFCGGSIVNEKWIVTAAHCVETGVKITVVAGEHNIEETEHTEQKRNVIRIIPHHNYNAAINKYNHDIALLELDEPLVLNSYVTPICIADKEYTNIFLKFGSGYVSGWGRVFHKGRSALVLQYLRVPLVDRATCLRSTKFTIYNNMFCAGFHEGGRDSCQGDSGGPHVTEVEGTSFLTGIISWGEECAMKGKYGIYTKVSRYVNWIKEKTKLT

Row | Compound | IC50 (FXa (Homo sapiens)) [nM] | IC50 (FIIa (Homo sapiens)) [nM] | IC50 (intrinsic factor Xase) [nM] | Drug concentration required for multiplication of coagulation time (μg/mL) PT (human-controlled plasma [1]) | Drug concentration required for multiplication of coagulation time (μg/mL) TT (plasma) | Drug concentration required for multiplication of coagulation time (μg/mL) APTT (human-controlled plasma [2]) [µg/mL] | Drug concentration required to inhibit 50% of coagulation factor activity (IC50, ng/mL) Xa (AT) (FXa (Homo sapiens)) | Drug concentration required to inhibit 50% of coagulation factor activity (IC50, ng/mL) Ha (AT) (FIIa (Homo sapiens)) | Drug concentration required to inhibit 50% of coagulation factor activity (IC50, ng/mL) Xase (intrinsic factor Xase)
1 | CC(=O)NC(CO)C(OC1OC(C(=O)O)C(OC2OC(COS(=O)(=O)O)C(OS(=O)(=O)O)C(OC3OC(C(=O)O)C(OC4OC(COS(=O)(=O)O)C(OS(=O)(=O)O)C(OC5OC(C(=O)O)C(OC6OC(COS(=O)(=O)O)C(OS(=O)(=O)O)C(OC7OC(C(=O)O)C(OC8OC(COS(=O)(=O)O)C(OS(=O)(=O)O)C(OC9OC(C(=O)O)C(OC%10OC(COS(=O)(=O)O)C(OS(=O)(=O)O)C(OC%11OC(C(=O)O)=CC(OC%12OC(C)C(OS(=O)(=O)O)C(O)C%12OS(=O)(=O)O)C%11O)C%10NC(C)=O)C(OC%10OC(C)C(OS(=O)(=O)O)C(O)C%10OS(=O)(=O)O)C9O)C8NC(C)=O)C(OC8OC(C)C(OS(=O)(=O)O)C(O)C8OS(=O)(=O)O)C7O)C6NC(C)=O)C(OC6OC(C)C(OS(=O)(=O)O)C(O)C6OS(=O)(=O)O)C5O)C4NC(C)=O)C(OC4OC(C)C(OS(=O)(=O)O)C(O)C4OS(=O)(=O)O)C3O)C2NC(C)=O)C(OC2OC(C)C(OS(=O)(=O)O)C(O)C2OS(=O)(=O)O)C1O)C(OS(=O)(=O)O)C(O)COS(=O)(=O)O [Compound A5, L-Fuc2S4S-(α1,3)-ΔUA-(α1,3)-{D-GaNAc4S6S-(β1,4)-[L-Fuc2S4S-(α1,3)]-D-GlcA-(β1,3)}n+1-D-GalNAc4S6S-ol] | > 985 | > 985 | 4.65 | # (>128 μg/mL) | # (>128 μg/mL) | 3.9 | – | – | –
2 | CC(=O)NC1C(OC2C(C(=O)O)OC(OC3C(NC(C)=O)C(OC(C(O)C(=O)O)C(OC4OC(C)C(OS(=O)(=O)O)C(OS(=O)(=O)O)C4O)C(O)CO)OC(COS(=O)(=O)O)C3OS(=O)(=O)O)C(O)C2OC2OC(C)C(OS(=O)(=O)O)C(OS(=O)(=O)O)C2O)OC(COS(=O)(=O)O)C(OS(=O)(=O)O)C1OC1OC(C(=O)O)=CC(OC2OC(C)C(OS(=O)(=O)O)C(OS(=O)(=O)O)C2O)C1O [Compound B2, L-Fuc3S4S-(α1,3)-L-ΔUA-(α1,3)-{D-GalNAc4S6S-(β1,4)-[L-Fuc3S4S-(α1,3)]-D-GlcA-(β1,3)}˜-D-GalNAc4S6S-(β1,4)-[L-Fuc3S4S-(α1,3)]-D-GlcA-ol] | > 2300 | > 2300 | 29.5 | # (>128 μg/mL) | # (>128 μg/mL) | 7.5 | – | – | –
3 | L-Fuc2S4S-(α1,3)-ΔUA-(α1,3)-{D-GaNAc4S6S-(β1,4)-[L-Fuc2S4S-(α1,3)]-D-GlcA-(β1,3)}n+1-D-GalNAc4S6S-ol [Compound A1] | – | – | – | # (>128 μg/mL) | # (>128 μg/mL) | 60.1 | ## (>5000 ng/mL) | ## (>5000 ng/mL) | ## (>5000 ng/mL)
4 | COC(=O)C1=CC(OC2OC(C)C(OS(=O)(=O)O)C(O)C2OS(=O)(=O)O)C(O)C(OC2C(NC(C)=O)C(OC3C(C(=O)OC)OC(OC4C(NC(C)=O)C(OC5C(C(=O)OC)OC(OCc6ccccc6)C(O)C5OC5OC(C)C(OS(=O)(=O)O)C(O)C5OS(=O)(=O)O)OC(COS(=O)(=O)O)C4OS(=O)(=O)O)C(O)C3OC3OC(C)C(OS(=O)(=O)O)C(O)C3OS(=O)(=O)O)OC(COS(=O)(=O)O)C2OS(=O)(=O)O)O1 [Compound B10, L-Fuc2S4S-(α1,3)-L-6-Methyl-ΔUA-(α1,3)-D-GaNAc4S6S-(β1,4)-[L-Fuc2S4S-(α1,3)]-D-6-Methyl-ΔUA-GlcA-(β1,3)-D-GalNAc4S6S-(β1,4)-[L-Fuc2S4S-(α1,3)]-D-O-1-Benzyl-6-Methyl-GlcA] | > 2170 | > 2170 | 26.7 | # (>128 μg/mL) | # (>128 μg/mL) | 7.9 | – | – | –
5 | CC1OC(OC2C=C(C(=O)O)OC(OC3C(NS(=O)(=O)O)C(OC4C(C(=O)O)OC(OC5C(NS(=O)(=O)O)C(OC6C(C(=O)O)OC(OC(C(CO)NS(=O)(=O)O)C(OS(=O)(=O)O)C(O)COS(=O)(=O)O)C(O)C6OC6OC(C)C(OS(=O)(=O)O)C(O)C6OS(=O)(=O)O)OC(COS(=O)(=O)O)C5OS(=O)(=O)O)C(O)C4OC4OC(C)C(OS(=O)(=O)O)C(O)C4OS(=O)(=O)O)OC(COS(=O)(=O)O)C3OS(=O)(=O)O)C2O)C(OS(=O)(=O)O)C(O)C1OS(=O)(=O)O [Compound A7, L-Fuc2S4S-(α1,3)-L-ΔUA-(α1,3)-{D-GalNS4S6S-(β1,4)-[L-Fuc2S4S-(α1,3)-]-D-GlcA-(β1,3)}2-D-Gal-NS4S6S-ol] | > 1880 | > 1880 | 22.2 | # (>128 μg/mL) | # (>128 μg/mL) | 6.9 | – | – | –

Second part, led by results:

Row | IC50 (FXa (Homo sapiens)) [nM] | IC50 (FIIa (Homo sapiens)) [nM] | IC50 (intrinsic factor Xase) [nM] | Compound | Drug concentration required for multiplication of coagulation time (μg/mL) PT (human-controlled plasma [1]) | Drug concentration required for multiplication of coagulation time (μg/mL) TT (plasma) | Drug concentration required for multiplication of coagulation time (μg/mL) APTT (human-controlled plasma [2]) [µg/mL] | Drug concentration required to inhibit 50% of coagulation factor activity (IC50, ng/mL) Xa (AT) (FXa (Homo sapiens)) | Drug concentration required to inhibit 50% of coagulation factor activity (IC50, ng/mL) Ha (AT) (FIIa (Homo sapiens)) | Drug concentration required to inhibit 50% of coagulation factor activity (IC50, ng/mL) Xase (intrinsic factor Xase)
6 | > 1940 | > 1940 | 26.5 | COC(=O)C1=CC(OC2OC(C)C(OS(=O)(=O)O)C(O)C2OS(=O)(=O)O)C(O)C(OC2C(NC(C)=O)C(OC3C(C(=O)OC)OC(OC4C(NC(C)=O)C(OC5C(C(=O)OC)OC(OC(C(CO)NC(C)=O)C(OS(=O)(=O)O)C(O)COS(=O)(=O)O)C(O)C5OC5OC(C)C(OS(=O)(=O)O)C(O)C5OS(=O)(=O)O)OC(COS(=O)(=O)O)C4OS(=O)(=O)O)C(O)C3OC3OC(C)C(OS(=O)(=O)O)C(O)C3OS(=O)(=O)O)OC(COS(=O)(=O)O)C2OS(=O)(=O)O)O1 [Compound A6, L-Fuc2S4S-(α1,3)-[6-Methyl-ΔUA-(α1,3)]-{D-GaNAc4S6S-(β1,4)-[L-Fuc2S4S-(α1,3)-]-D-6-Methyl-GlcA-(β1,4)}2-D-GalNAc4S6S-ol] | # (>128 μg/mL) | # (>128 μg/mL) | 7.5 | – | – | –
7 | > 1930 | > 1930 | 27.2 | COCC(NC(C)=O)C(OC1OC(C(=O)OC)C(OC2OC(COS(=O)(=O)O)C(OS(=O)(=O)O)C(OC3OC(C(=O)OC)C(OC4OC(COS(=O)(=O)O)C(OS(=O)(=O)O)C(OC5OC(C(=O)OC)=CC(OC6OC(C)C(OS(=O)(=O)O)C(O)C6OS(=O)(=O)O)C5O)C4NC(C)=O)C(OC4OC(C)C(OS(=O)(=O)O)C(O)C4OS(=O)(=O)O)C3O)C2NC(C)=O)C(OC2OC(C)C(OS(=O)(=O)O)C(O)C2OS(=O)(=O)O)C1O)C(OS(=O)(=O)O)C(O)COS(=O)(=O)O [Compound A8, L-Fuc2S4S-(α1,3)-[6-Methyl-ΔUA-(α1,3)]-{D-GaNAc4S6S-(β1,4)-[L-Fuc2S4S-(α1,3)-]-D-6-Methyl-GlcA-(β1,3)}2-D-1-Methyl-Gal-NAc4S6S-ol] | # (>128 μg/mL) | # (>128 μg/mL) | 8.2 | – | – | –
